Assay results: patent US11884675B2, “Heterocyclic compounds as triggering receptor expressed on myeloid cells 2 agonists and methods of use” (AMGEN INC., priority 2020, dated 2024)

target: T1, hTREM2 (Homo sapiens, UniProt Q9NZC2); assay: TREM2 agonist potency by Syk phosphorylation (AlphaLisa) in HEK293T-hTREM2 cells, used for Examples 306-429; assay type: cell-based; parameters: expressed in transfected cells; host or cells: HEK293T (HEK293T-hTREM2 cells); conditions: HEK293 Cells
Procedure: In vitro Measurement of Triggering Receptor Expressed on Myeloid Cells 2 activity using cellular phosphorylation of Spleen Tyrosine Kinase (“Syk”) Assays used for Examples 306-429
Measurement of TREM2 agonist potency was done using a HEK cell line expressing human TREM2 and DAP12 (HEK293T-hTREM2 cells). Binding of small molecules to, and activation of, TREM2 increases the phosphorylation of Syk. The resultant levels of Syk phosphorylation were measured using a commercial AlphaLisa reagent kit. To perform the assay, HEK-hTREM2 cells were plated at 14,000 cells per well in a 384 well plate, in 25 μL, of complete growth media and incubated at 37° C., 5% CO2 for 20-24 hours. Prior to the assay, test compounds were diluted in the 384 well plates in assay buffer and allowed to equilibrate for 30 minutes. Growth media was removed from cell plates by inversion on blotting paper, and 25 μL of test compounds in assay buffer was added to cells. Cells were incubated for 45 minutes at room temperature. After 45 minutes, assay buffer was removed and 10 μL of lysis buffer was added. Plates were shaken for 20 minutes at 350 RPM at room temperature. After complete lysis, AlphaLisa reagents were added to the lysate, and fluourescence intensity was measured using a Perkin Elmer Envision plate reader. Intensities were used to generate a standard curve, and % activation was calculated. Curve fitting was performed using Prism v9 software, log(agonist) vs response-variable slope (four parameters), and EC50s were calculated from the curve fit.
The results presented in Table 20 have been generated with the in vitro assay described above for Examples 306-429. This assay may be used to test any of the compounds described herein to assess and characterize a compound's ability to act as an agonist of TREM2.

T1 sequence (Q9NZC2 19-230): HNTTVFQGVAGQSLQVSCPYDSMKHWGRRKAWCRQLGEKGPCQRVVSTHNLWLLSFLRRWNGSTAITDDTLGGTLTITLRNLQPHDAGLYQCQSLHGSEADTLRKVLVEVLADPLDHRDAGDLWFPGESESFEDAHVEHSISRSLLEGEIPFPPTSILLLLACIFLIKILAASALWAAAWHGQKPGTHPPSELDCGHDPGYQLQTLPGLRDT
T1 sequence (O43914 22-113 partner): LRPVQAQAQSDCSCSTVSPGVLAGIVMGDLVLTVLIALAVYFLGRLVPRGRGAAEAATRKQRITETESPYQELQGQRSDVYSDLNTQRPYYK

Row | EC50 [nM] | SMILES
1 | 50 to 500 | Cc1cc([C@@H]2C[C@H](c3cc4nc(C)c(C)nc4c(-c4ccc(F)cc4F)n3)CCO2)ccn1 [Example 316, 5-(2,4-difluorophenyl)-2,3-dimethyl-7-[(2S,4R)-2-(2-methyl-4-pyridyl)tetrahydropyran-4-yl]pyrido[3,4-b]pyrazine]
2 | ≤ 50 | COc1cc(C2CN(c3nc4nc(C)c(C)nc4c([C@]45C[C@](C(F)(F)F)(C4)C5)n3)CCO2)ccn1 (mixture of isomers) [Example 318, 4-(6,7-dimethyl-4-(3-(trifluoromethyl)bicyclo[1.1.1]pentan-1-yl)pteridin-2-yl)-2-(2-methoxypyridin-4-yl)morpholine]
3 | ≤ 50 | Cc1cc(C2CN(c3cc4nc(C)c(C)nc4c(-c4ccc(F)cc4F)n3)CCO2)ccn1 (stereo not drawn) [Example 315, 4-(5-(2,4-difluorophenyl)-2,3-dimethylpyrido[3,4-b]pyrazin-7-yl)-2-(2-methylpyridin-4-yl)morpholine]
4 | ≤ 50 | Cc1nc2nc(N3C[C@@H](C)O[C@@H](c4cnn(C5CC5)c4)C3)nc(-c3ccc(F)cc3F)c2nc1C [Example 427, (2S,6R)-2-(1-cyclopropyl-1H-pyrazol-4-yl)-4-(4-(2,4-difluorophenyl)-6,7-dimethylpteridin-2-yl)-6-methylmorpholine]
5 | ≤ 50 | Cc1cnc2c(-c3ccc(F)cc3F)nc(N3C[C@@H](C)O[C@@H](c4cnn(C5CC5)c4)C3)nc2n1 [Example 420, (2S,6R)-2-(1-cyclopropyl-1H-pyrazol-4-yl)-4-(4-(2,4-difluorophenyl)-7-methylpteridin-2-yl)-6-methylmorpholine]
6 | 50 to 500 | Cc1ccc2c(-c3ccc(F)cc3F)nc([C@H]3C[C@@H](C)O[C@@H](c4cnn(C5CC5)c4)C3)nc2n1 [Example 416, 2-((2R,4S,6R)-2-(1-cyclopropyl-1H-pyrazol-4-yl)-6-methyltetrahydro-2H-pyran-4-yl)-4-(2,4-difluorophenyl)-7-methylpyrido[2,3-d]pyrimidine]
7 | 500 to 3000 | Cc1cc([C@H]2C[C@H](c3cc4nc(C)c(C)nc4c(-c4ccc(F)cc4F)n3)CCO2)ccn1 [Example 331, 5-(2,4-difluorophenyl)-2,3-dimethyl-7-((2R,4R)-2-(2-methylpyridin-4-yl)tetrahydro-2H-pyran-4-yl)pyrido[3,4-b]pyrazine]
8 | ≤ 50 | Cc1cc([C@H]2C[C@@H](c3cc4nc(C)c(C)nc4c(-c4ccc(F)cc4F)n3)CCO2)ccn1 [Example 317, 5-(2,4-difluorophenyl)-2,3-dimethyl-7-[(2R,4S)-2-(2-methyl-4-pyridyl)tetrahydropyran-4-yl]pyrido[3,4-b]pyrazine]
9 | 50 to 500 | Cc1cc(C2CN(c3nc(-c4ccc(Cl)cc4C(F)(F)F)c4nc(C)c(C)nc4n3)CCO2)ccn1 (stereo not drawn) [Example 343, 4-(4-(4-chloro-2-(trifluoromethyl)phenyl)-6,7-dimethylpteridin-2-yl)-2-(2-methylpyridin-4-yl)morpholine]
10 | ≤ 50 | Cc1nc2cc(N3C[C@@H](C)O[C@@H](c4cnn(C5CC5)c4)C3)nc(-c3ccc(F)cc3F)c2nc1C (racemic) [Example 358, 2-(1-cyclopropyl-1H-pyrazol-4-yl)-4-(5-(2,4-difluorophenyl)-2,3-dimethylpyrido[3,4-b]pyrazin-7-yl)-6-methylmorpholine]
11 | ≤ 50 | Cc1nc2cc(N3CCO[C@@H](c4cnn(C5CC5)c4)C3)nc(-c3ccc(C(F)(F)F)nc3)c2nc1C [Example 384, (2S)-2-(1-cyclopropylpyrazol-4-yl)-4-[2,3-dimethyl-5-[6-(trifluoromethyl)-3-pyridyl]pyrido[3,4-b]pyrazin-7-yl]morpholine]

target: T1, hTREM2; assay: TREM2 activity by cellular Syk phosphorylation (AlphaScreen/AlphaLISA) in TREM2/DAP12-HEK cells, used for Examples 1-305; assay type: cell-based; parameters: expressed in transfected cells; conditions: HEK293 Cells
Outline: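 Single-cell-cloned HEK293 cells overexpressing TREM2 and DAP12, seeded 20 h, exposed to test articles (1% final DMSO) for 45 min at room temperature. Lysates read for phospho-Syk (Tyr525/526) vs total Syk by AlphaScreen. Signal normalised as percent of control between isotype IgG and 100 nM anti-TREM2 antibody; 4-parameter logistic fit.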

Row | EC50 [nM] | hTREM2 Emax | SMILES
12 | 3000 to 100000 | +++ (Emax>150 and ≤250) | Cc1ccc2cc(N3CCO[C@@H](c4cnn(C)c4)C3)nc(-c3ccc(Cl)cc3F)c2c1 [Example 236, (S)-4-(1-(4-chloro-2-fluorophenyl)-7-methylisoquinolin-3-yl)-2-(1-methyl-1H-pyrazol-4-yl)morpholine]
13 | 500 to 3000 | ++ (Emax>100 and ≤150) | Cc1nc2nc(N3CCO[C@@H](c4cnn(C)c4)C3)nc(N3CC(C(F)(F)F)C3)c2nc1C [Example 30, 6,7-dimethyl-2-((2S)-2-(1-methyl-1H-pyrazol-4-yl)-4-morpholinyl)-4-(3-(trifluoromethyl)-1-azetidinyl)pteridine]
14 | 50 to 500 | ++++ (Emax>250) | Cc1cnc2c(-c3ccc(Cl)cc3F)nc([C@H]3CCO[C@@H](c4cnn(C)c4)C3)cc2n1 (single isomer, unassigned) [Example 191]
15 | ≤ 50 | +++ (Emax>150 and ≤250) | Cc1cc([C@H]2C[C@H](c3nc(-c4ccc(F)cc4F)c4cc(C)c(C)nc4n3)CCO2)ccn1 (single isomer, unassigned) [Example 228]
16 | ≤ 50 | +++ (Emax>150 and ≤250) | Cc1nc2nc(N3CCO[C@@H](c4cnn(C)c4)C3)nc(-c3ccc(C(F)(F)F)nc3)c2nc1C [Example 19, 6,7-dimethyl-2-((2S)-2-(1-methyl-1H-pyrazol-4-yl)-4-morpholinyl)-4-(6-(trifluoromethyl)-3-pyridinyl)pteridine]
17 | ≤ 50 | +++ (Emax>150 and ≤250) | Cc1cnc2c(-c3ccc(Cl)cc3F)nc(N3CCO[C@@H](c4cnn(C5CC5)c4)C3)nc2n1 [Example 2, 4-(4-chloro-2-fluorophenyl)-2-((2S)-2-(1-cyclopropyl-1H-pyrazol-4-yl)-4-morpholinyl)-7-methylpteridine]
18 | 500 to 3000 | +++ (Emax>150 and ≤250) | Cc1nc2nc([C@@H]3CCO[C@@H](c4cnn(C)c4)C3)cc(-c3ccc(Cl)cc3F)c2nc1C [Example 249, 8-(4-chloro-2-fluorophenyl)-2,3-dimethyl-6-((2R,4R)-2-(1-methyl-1H-pyrazol-4-yl)tetrahydro-2H-pyran-4-yl)pyrido[2,3-b]pyrazine]
19 | 500 to 3000 | +++ (Emax>150 and ≤250) | Cc1nc2nc([C@H]3CCO[C@H](c4cnn(C)c4)C3)cc(-c3ccc(F)cc3F)c2nc1C [Example 265, 8-(2,4-difluorophenyl)-2,3-dimethyl-6-((2S,4S)-2-(1-methyl-1H-pyrazol-4-yl)tetrahydro-2H-pyran-4-yl)pyrido[2,3-b]pyrazine]
20 | 50 to 500 | +++ (Emax>150 and ≤250) | Cc1cc([C@@H]2CN(c3nc4nc(C)c(C)nc4c([C@H]4C[C@H](C(F)(F)F)C4)n3)CCO2)cnn1 [Example 52, 6,7-dimethyl-2-((2R)-2-(6-methyl-4-pyridazinyl)-4-morpholinyl)-4-(trans-3-(trifluoromethyl)cyclobutyl)pteridine]
21 | ≤ 50 | +++ (Emax>150 and ≤250) | Cc1nc2nc(N3CCO[C@@H](c4cnn(C)c4)C3)nc(C3CCC4(CC3)CC4)c2nc1C [Example 137, 6,7-dimethyl-2-((2S)-2-(1-methyl-1H-pyrazol-4-yl)-4-morpholinyl)-4-(spiro[2.5]octan-6-yl)pteridine]
22 | ≤ 50 | ++++ (Emax>250) | Cc1cc([C@@H]2C[C@@H](c3nc(-c4ccc(Cl)cc4F)c4nc(C)c(C)nc4n3)CCO2)ccn1 [Example 272, 4-(4-chloro-2-fluorophenyl)-6,7-dimethyl-2-((2S,4S)-2-(2-methylpyridin-4-yl)tetrahydro-2H-pyran-4-yl)pteridine]
